According to publication PMC10202811 (Nature Medicine, 2023):
Several values for one entry are separate records, joined by “and”; a condition that tells them apart may be missing. Equal values may be shown once. Entries after “also recorded” stand apart in the source; their conditions may differ. Marks after values point to notes of the source that are not given here.

Assay: Toxicity assessment (CTCAE version 4): treatment-related AEs, DLTs, dose reductions, RP2D; phase 1 NANT2015-02
Settings: for Toxicity Maximum Grade per patient: Sinus tachycardia / Toxicity Maximum Grade per patient: Neutrophil count decreased: CTCAE grade
Protocol: Five DLs (45, 60, 75, 95 and 115 mg/m^2/dose) were assessed in A1, using a 3 + 3 design. […] Myeloid growth factor was given 24 hours after the completion of topotecan/cyclophosphamide on B2, according to institutional standards. Instructions and hands-on training for a tablet dispersion formulation, validated by Pfizer, was provided to families of patients who could not swallow tablets.
Initially, this was the only DL planned, but, with a subsequent amendment, a second DL was added to cohort A2 (150 mg). […] Finally, because of the nature of the patients in cohort A2 (which had only two planned DLs), an expansion of up to six additional patients was planned for the highest DL tested with zero or one DLT in six DLT-evaluable patients. Accrual could continue in the expansion cohort as long as none, or at most one, of the patients experienced DLT in the DLT observation period; if two or more patients experienced DLT in the DLT observation period, this would lead to a discussion of the suitability of this dose. The probability of observing […] with DLT, out of six patients, is 0.11, 0.22, 0.47, 0.68 and 0.77 when the true probability of DLT is 0.10, 0.15, 0.25, 0.35 and 0.40, respectfully.
Patients who were not evaluable for DLT were replaced for dose-escalation purposes. […] The MTD was defined as the highest DL tested at which zero of six or one of six patients experience DLT. After determination of the MTD and review of all toxicities, and provided that other safety considerations were acceptable, the MTD was labeled the RP2D.
Toxicity was graded according to CTCAE version 4. DLT definitions included only toxicities deemed at least possibly related to therapy. For A1 and A2, hematologic DLT was defined as grade 4 thrombocytopenia or grade 4 neutropenia >7-day duration or a delay in the start of subsequent course by more than 14 days due to ongoing thrombocytopenia or neutropenia, in the absence of bone marrow disease progression seen on clinically indicated bone marrow biopsy (if performed). For cohort B2, hematological DLT is defined as a delay in the start of subsequent course by more than 14 days due to ongoing thrombocytopenia or neutropenia, in the absence of bone marrow disease progression seen on clinically indicated bone marrow biopsy after the first dose reduction of cyclophosphamide and topotecan. Non-hematologic DLT was defined as any non-hematologic toxicity that delayed the start of a subsequent cycle by more than 14 days or any grade ≥3 toxicity, with the exception of the following grade 3 toxicities: nausea, vomiting, anorexia or dehydration resolving to grade ≤2 within 72 hours; increase in hepatic transaminase or electrolyte abnormality resolving eligibility levels within 7 days; diarrhea persisting for less than 72 hours; fever; infection; febrile neutropenia; high cholesterol or triglycerides if responsive (to ≤grade 2) with statin treatment; weight gain; and hyperglycemia if responsive (to <grade 2) with dietary modification.

[1] = Cohort A1, neurotoxicity, one line per patient (PID)
[2] = Cohort A1, one line per patient (PID)

Compound: C[C@H]1Oc2cc(cnc2N)-c2c(nn(C)c2C#N)CN(C)C(=O)c2ccc(F)cc21 [Lorlatinib, (10R)-7-amino-12-fluoro-2,10,16-trimethyl-15-oxo-10,15,16,17-tetrahydro-2H-8,4-(metheno)pyrazolo[4,3-h][2,5,11]-benzoxadiazacyclotetradecine-3-carbonitrile]
- patients developing grade 2 CNS effects (<18 years (cohorts A1 and B2), two of 33): 6%
- patients requiring a dose reduction (<18 years, lorlatinib monotherapy): 9%
- CNS DLT (CTCAE V4) (A1 (< 18 yrs), DL 5 (115 mg/m^2)): Grade 2 hallucination/insomnia
- DLT (A1, DL5 (115 mg/m^2), course 1): YES
- Toxicity reason for Dose reduction (A1, DL5 (115 mg/m^2), course 1): Grade 3 Diarrhea (lactose intolerance)
- DLT (A1, DL5 (115 mg/m^2), course 3): Delayed DLT
- Toxicity reason for Dose reduction (A1, DL5 (115 mg/m^2), course 3): Grade 2 Hallucination/insomnia^1
- CNS DLT (CTCAE V4) (A2 (≥ 18 yrs), 100 mg): Grade 2 memory impairment
- CNS DLT (CTCAE V4) (A2 (≥ 18 yrs), 150 mg): Grade 2-4 hallucinations, delusions, suicidal ideations; also recorded: Grade 3 agitation^g; also recorded: Grade 4 Mania
- DLT (A2, 100 mg, course 3): Delayed DLT^2
- Toxicity reason for Dose reduction (A2, 100 mg, course 3): Grade 3 Hyperglycemia
- DLT (A2, 100 mg, course 7): Delayed DLT
- Toxicity reason for Dose reduction (A2, 100 mg, course 7): Grade 2 Memory impairment
- DLT (A2, 150 mg, course 2): YES
- Toxicity reason for Dose reduction (A2, 150 mg, course 2): Grade 2-4 Delusions, psychosis, suicide attempt^3
- DLT (A2, 150 mg, course 2 (second patient)): YES
- Toxicity reason for Dose reduction (A2, 150 mg, course 3): Grade 2 Lower extremity edema^5
- DLT (A2, 150 mg, course 4): Delayed DLT
- Toxicity reason for Dose reduction (A2, 150 mg, course 4): Grade 2 Peripheral neuropathy/edema
- Toxicity reason for Dose reduction (A2, 150 mg, course 5): Grade 2 Peripheral neuropathy^6
- CNS DLT (CTCAE V4) (B2 (< 18yrs), DL 5 (115 mg/m^2)): Grade 2 anxiety, depression, somnolence, hypersomnia
- DLT (B2, DL5 (115 mg/m^2), course 3): Delayed DLT
- Toxicity reason for Dose reduction (B2, DL5 (115 mg/m^2), course 3): Grade 2 anxiety, depression, somnolence, hypersomnia
- Patients with DLT in course 1 (Cohort A1, DL1 (45 mg/m^2)): 0
- Patients with DLT in course 2 (Cohort A1, DL1 (45 mg/m^2)): 0
- Patients with DLT in other courses (Cohort A1, DL1 (45 mg/m^2)): 0
- Patients with DLT in course 1 (Cohort A1, DL2 (60 mg/m^2)): 0
- Patients with DLT in course 2 (Cohort A1, DL2 (60 mg/m^2)): 0
- Patients with DLT in other courses (Cohort A1, DL2 (60 mg/m^2)): 0
- Patients with DLT in course 1 (Cohort A1, DL3 (75 mg/m^2)): 0
- Patients with DLT in course 2 (Cohort A1, DL3 (75 mg/m^2)): 0
- Patients with DLT in other courses (Cohort A1, DL3 (75 mg/m^2)): 0
- Patients with DLT in course 1 (Cohort A1, DL4 (95 mg/m^2)): 0
- Patients with DLT in course 2 (Cohort A1, DL4 (95 mg/m^2)): 0
- Patients with DLT in other courses (Cohort A1, DL4 (95 mg/m^2)): 0
- Patients with DLT in course 1 (Cohort A1, DL5 (115 mg/m^2)): 1^b
- Patients with DLT in course 2 (Cohort A1, DL5 (115 mg/m^2)): 0
- Patients with DLT in other courses (Cohort A1, DL5 (115 mg/m^2)): 1^b
- Toxicity Maximum Grade per patient: Sinus tachycardia (Cohort A1, patient PID 9): 2
- Toxicity Maximum Grade per patient: Sinus tachycardia (Cohort A1, patient PID 17): 1
- Toxicity Maximum Grade per patient: Sinus tachycardia (Cohort A1, patient PID 18): 1
- Toxicity Maximum Grade per patient: Neutrophil count decreased (Cohort A1, patient PID 21): 2
- Toxicity Maximum Grade per patient: Neutrophil count decreased (Cohort A1, patient PID 31): 3
- Amnesia (CNS effect) (Cohort A1, grade 1-4 in c1-c4): 0 (0)
- Confusion (CNS effect) (Cohort A1, grade 1-4 in c1-c4): 0 (0)
- Delirium (CNS effect) (Cohort A1, grade 1-4 in c1-c4): 0 (0)
- Delusions (CNS effect) (Cohort A1, grade 1-4 in c1-c4): 0 (0)
- Dysarthria (CNS effect) (Cohort A1, grade 1-4 in c1-c4): 0 (0)
- Euphoria (CNS effect) (Cohort A1, grade 1-4 in c1-c4): 0 (0)
- Hypersomnia (CNS effect) (Cohort A1, grade 1-4 in c1-c4): 0 (0)
- Mania (CNS effect) (Cohort A1, grade 1-4 in c1-c4): 0 (0)
- Paresthesia (CNS effect) (Cohort A1, grade 1-4 in c1-c4): 0 (0)
- Restlessness (CNS effect) (Cohort A1, grade 1-4 in c1-c4): 0 (0)
- Somnolence (CNS effect) (Cohort A1, grade 1-4 in c1-c4): 0 (0)
- Stuttering (CNS effect) (Cohort A1, grade 1-4 in c1-c4): 0 (0)
- Suicidal ideation (CNS effect) (Cohort A1, grade 1-4 in c1-c4): 0 (0)
- Agitation: Toxicity Maximum Grade per patient [1]: 1
- Anxiety: Toxicity Maximum Grade per patient [1]: 1
- Cognitive disturbance: Toxicity Maximum Grade per patient [1]: 1
- Concentration impairment: Toxicity Maximum Grade per patient [1]: 1
- Depression: Toxicity Maximum Grade per patient [1]: 1
- Hallucinations: Toxicity Maximum Grade per patient [1]: 2
- Headache: Toxicity Maximum Grade per patient [1]: 1
- Memory impairment: Toxicity Maximum Grade per patient [1]: 1
- Alanine aminotransferase increased: Toxicity Maximum Grade per patient [2]: 1 and 2
- Alkaline phosphatase increased: Toxicity Maximum Grade per patient [2]: 1 and 2
- Anemia: Toxicity Maximum Grade per patient [2]: 2 and 1 and 3
- Aspartate aminotransferase increased: Toxicity Maximum Grade per patient [2]: 1 and 3 and 2
- Cholesterol high: Toxicity Maximum Grade per patient [2]: 2 and 1 and 3
- Creatinine increased: Toxicity Maximum Grade per patient [2]: 1
- Diarrhea: Toxicity Maximum Grade per patient [2]: 1 and 3
- Edema limbs: Toxicity Maximum Grade per patient [2]: 1
- Electrocardiogram QT corrected interval prolonged: Toxicity Maximum Grade per patient [2]: 1
- Fatigue: Toxicity Maximum Grade per patient [2]: 1
- Flatulence: Toxicity Maximum Grade per patient [2]: 2 and 1
- Gastroesophageal reflux disease: Toxicity Maximum Grade per patient [2]: 2
- Hyperglycemia: Toxicity Maximum Grade per patient [2]: 1 and 3
- Hypertriglyceridemia: Toxicity Maximum Grade per patient [2]: 1 and 2 and 3
- INCREASED APPETITE: Toxicity Maximum Grade per patient [2]: 1
- Irritability: Toxicity Maximum Grade per patient [2]: 1
- Lymphocyte count decreased: Toxicity Maximum Grade per patient [2]: 1 and 3
